In brackets after ≈: the same amount, converted by molar mass. Where two headings read alike, the source gives them in different places.
Assays:
[1] = Quantification of solubility by visual inspection for undissolved material; format: physicochemical; settings: for Enhancement factor: solubility in ChCl-urea DES relative to aqueous solution; for Solubility in water: obtained in this work
Procedure: Solubility was determined through adding an amount of CB[n] n=6, 7 or 8 or x-CD (where x=α, β or γ) to 1 mL of solvent followed by vortexing and heating the mixture to 80° C. The mixture was inspected visually to determine the presence of undissolved material. The mixture was then cooled to room temperature and the mixture re-examined to determine the presence of any undissolved material.

[2] = UV/vis probing of host-guest binding in ChCl-urea DES
Procedure: Methylviologen dichloride (2.0 mg, […], 1 eq.) was dissolved in ChCl:urea (1 mL) by vortexing and heating to 60° C. The methylviologen radical was formed by addition of a significant excess of reducing agent, sodium hydrosulfite, approx. 20 molar equivalents. To this solution CB[7] (9.0 mg, […], 1 eq.) was added and dissolved through stirring at 60° C. A sample of this solution (0.1 mL) was added to ChCl-urea (1 mL) and measured by UV/vis.
Methylviologen dichloride (2.0 mg, […], 1 eq.) was dissolved in ChCl:urea (1 mL) by vortexing and heating to 60° C. The methylviologen radical was formed by addition of a significant excess of reducing agent, sodium hydrosulfite, approx. 20 molar equivalents. To this solution CB[8] (10.1 mg, […], 1 eq. or 20.2 mg, 15.6 mmol, 2 eq.) was added and dissolved through stirring at 60° C. 0.1 ml of this solution were added to 1 ml of ChCl-urea and measured by UV/vis.
To probe the binding of γ-CD to MV^.+ a high concentration of MV^.+ was required on account of the lower binding constants of CDs compared to CB[n]. A solution of MV^.+ (15 mg/mL) was prepared (as described for CB[7] above) and to this γ-CD (170 mg, 2 equivalents) was added.

[3] = Cyclic voltammetry cycling stability of MV in DES in air; format: physicochemical; settings: DES (ChCl-urea, ChCl-ethylene glycol, ChCl-glycerol), no degassing
Procedure: Electrochemical measurements were performed in air at 40° C. using a PalmSens EmStat potentiostat. A three-electrode cell was used, equipped with a glassy carbon working electrode (3 mm diameter, BASi), a Ag/AgCl reference electrode (BASi) and a platinum mesh counter electrode (Sigma-Aldrich). The working electrode was cleaned before experiments by mechanically polishing in alumina (Buehler, Micropolish, 1 μm) on a polishing cloth (Buehler, Microcloth).
Cyclic voltammetry (CV) was recorded at 0.1 V s^−1 scan rate and 5.0 mM MV^2+ 2Cl^− concentration. FcMeOH (5 mM) was used as an internal reference. Analyte solutions were prepared by heating the respective DES with MV^2+ 2Cl^− and FcMeOH to 80° C. for 30 min.
None of the solutions were degassed before measurement nor was any attempt made to exclude oxygen or air.

[4] = Long term UV/vis measurement of MV^+. in ChCl-urea DES exposed to air; format: physicochemical
Procedure: MV^2+ 2Cl^− (1 mg, 0.0039 mmol) was added to ChCl-urea DES (10 mL) and dissolved by heating to 80° C. for 30 min to give a 0.39 mM solution. The solution was then heated to 130° C. for 2 h during which time it had turned blue. A portion (1.5 mL) of the resulting blue solution was removed, placed in a cuvette and a UV/vis spectrum was recorded.
Spectra were recorded across a 100 h period in an open cuvette.
The solution was not degassed or covered in any way nor was any attempt to keep O2 out made.

[5] = Purging of MV^+. solutions (DES or water) with air, monitored by UV/vis at 609 nm; format: physicochemical
[6] = Photochemical switching of MV in DES (solar light simulator, then air purge); format: physicochemical; settings: photogenerated radical in DES, purging with air
Procedure: DES MV^2+ solution (1.5 mL) in a quartz cuvette (1 cm path length, Hellma) was placed in a water bath held at 25° C. and irradiated by a solar light simulator (Newport Oriel, 100 mW cm^−2) equipped with an air mass 1.5 global filter (AM 1.5 G). IR irradiation was filtered with a water filter (10 cm path length). Samples were thermostatted at 25° C.
Stock solutions of MV^2+ in each of the three DES were prepared as follows: MV^2+ 2Cl^− (10 mg, 0.04 mmol) was added each individual DES (ChCl-urea, ChCl-glycerol and ChCl-ethylene glycol) (10 mL) separately and dissolved by heating to 80° C. for 30 min to give a colorless solution.
MV^2+ in DES (1.5 mL) was transferred to a quartz cuvette and placed in a water bath held at 25° C. in front of a solar light simulator. The sample was removed from the simulator and UV/vis spectra recorded at various time intervals to monitor the formation of MV^+..
The resultant blue MV^+. solutions were then purged with air (30 mL min^−1) using a mass flow controller (Brooks). UV/vis spectra were recorded at time intervals during the purging to monitor the disappearance of the MV^+. species.

[7] = Solubility of methylviologen dichloride in ChCl-urea; format: physicochemical; settings: ChCl-urea DES
Excerpt: However, it should be noted that other anions, such as [PF6]^− and I^− were also found to be soluble and may also be used.

[8] = values taken from Sabadini et al.; cited from earlier work
[9] = ChCl-urea DES, room temperature

Row | Molecule | DES solubility (maximum solubility) [1, 9] | maximum solubility ([1]; ChCl-TsOH DES) [mg/mL] | maximum solubility ([1]; ChCl-urea DES) [mg/mL] | maximum solubility ([1]; H2O) [mg/mL] | maximum solubility ([1]; HCl (3M)) [mg/mL] | maximum solubility ([1]; NaCl (0.1M)) [mg/mL] | maximum solubility ([1]; Phosphate buffer (pH = 7.0)) [mg/mL] | Enhancement factor [1] | Solubility in water ([1]; water) [mg/mL] | host-guest binding with MV^.+ by UV/vis [2] | further results
1 | O=C1N2CN3C(=O)N4CN5C(=O)N6CN7C(=O)N8CN9C(=O)N%10CN%11C(=O)N%12CN1C1C2N2CN%13C(=O)N(CN%14C(=O)N(CN%15C(=O)N(CN%16C(=O)N(CN%17C(=O)N(CN1C2=O)C%12C%11%17)C%10C9%16)C8C7%15)C6C5%14)C4C3%13 (stereo not drawn) [CB[6]] | 1.0 mg/mL | 1.0 | 1.0 | <0.1 | 15.0 | 4.6 | 17.4 | 10 | <0.1 | – | –
2 | O=C1N2CN3C(=O)N4CN5C(=O)N6CN7C(=O)N8CN9C(=O)N%10CN%11C(=O)N%12CN%13C(=O)N%14CN1C1C2N2CN%15C(=O)N(CN%16C(=O)N(CN%17C(=O)N(CN%18C(=O)N(CN%19C(=O)N(CN%20C(=O)N(CN1C2=O)C%14C%13%20)C%12C%11%19)C%10C9%18)C8C7%17)C6C5%16)C4C3%15 (stereo not drawn) [CB[7]] | 17 mg/mL | 18.0 | 17.0 | 4.4 | 100 | 14.8 | 19.8 | 3.9 | 4.4 (≈ 3.78 mM) | binding of MV^.+ is occurring | maximum solubility ([1]; ChCl-urea (1:2), room temperature): 15.0 mg cm^−3; maximum solubility in water ([1]; water): 4.4 mg cm^−3
3 | C[n+]1ccc(-c2cc[n+](C)cc2)cc1.[Cl-].[Cl-] [MV, N,N′-dimethyl-4,4′-bipyridinium dichloride] | – | – | – | – | – | – | – | – | – | – | electrochemical cycling stability [3]: ≥ 100 cycles; change in absorbance at 609 nm ([4]; ChCl-urea DES, exposed to air, 100 h period): no change in absorbance at 609 nm; time solutions remain blue ([4]; DES solutions prepared and stored in air): > 6 months; forecast lifetime ([4]; in DES, in air): > 6 months; radical lifetime upon purging with air ([5]; ChCl-ethylene glycol DES (36 cP)): shortest radical lifetime; radical lifetime upon purging with air ([5]; ChCl-glycerol DES (376 cP)): 900 min; radical lifetime upon purging with air ([5]; ChCl-urea DES (632 cP)): 400 min; time to complete quenching ([5]; aqueous solution, purging with air 0.1 mL min^−1): less than 4 min; persistence of radical species ([5]; in DES, purging with air 30 mL min^−1): 2 to 15 h; time to revert to colourless [6]: ≤ 150 s; solubility in ChCl-urea [7]: soluble
4 | OC[C@H]1O[C@@H]2O[C@H]3[C@H](O)[C@@H](O)[C@@H](O[C@H]4[C@H](O)[C@@H](O)[C@@H](O[C@H]5[C@H](O)[C@@H](O)[C@@H](O[C@H]6[C@H](O)[C@@H](O)[C@@H](O[C@H]7[C@H](O)[C@@H](O)[C@@H](O[C@H]1[C@H](O)[C@H]2O)O[C@@H]7CO)O[C@@H]6CO)O[C@@H]5CO)O[C@@H]4CO)O[C@@H]3CO [α-CD] | >500 mg/mL | – | – | – | – | – | – | >3.5 | – | – | Solubility in water [8]: 129.5 mg/mL (≈ 133 mM)
5 | OC[C@H]1O[C@@H]2O[C@H]3[C@H](O)[C@@H](O)[C@@H](O[C@H]4[C@H](O)[C@@H](O)[C@@H](O[C@H]5[C@H](O)[C@@H](O)[C@@H](O[C@H]6[C@H](O)[C@@H](O)[C@@H](O[C@H]7[C@H](O)[C@@H](O)[C@@H](O[C@H]8[C@H](O)[C@@H](O)[C@@H](O[C@H]9[C@H](O)[C@@H](O)[C@@H](O[C@H]1[C@H](O)[C@H]2O)O[C@@H]9CO)O[C@@H]8CO)O[C@@H]7CO)O[C@@H]6CO)O[C@@H]5CO)O[C@@H]4CO)O[C@@H]3CO [γ-CD] | >1000 mg/mL | – | – | – | – | – | – | >4 | – | binding behaviour similar to the CB[8] system occurred | CD content of the solution at that solubility ([1]; ChCl-urea DES): ~50 wt %; Solubility in water [8]: 249.2 mg/mL (≈ 192 mM)

Now from value to molecule, other results behind:

Row | DES solubility (maximum solubility) [1, 9] | maximum solubility ([1]; ChCl-TsOH DES) [mg/mL] | maximum solubility ([1]; ChCl-urea DES) [mg/mL] | maximum solubility ([1]; H2O) [mg/mL] | maximum solubility ([1]; HCl (3M)) [mg/mL] | maximum solubility ([1]; NaCl (0.1M)) [mg/mL] | maximum solubility ([1]; Phosphate buffer (pH = 7.0)) [mg/mL] | Enhancement factor [1] | Solubility in water ([1]; water) [mg/mL] | host-guest binding with MV^.+ by UV/vis [2] | Molecule | further results
6 | approx. 25 mg/mL | – | – | – | – | – | – | – | – | – | O=C1N2CN3C(=O)N4CN5C(=O)N6CN7C(=O)N8CN9C(=O)N%10CN1C1C2N2CN%11C(=O)N(CN%12C(=O)N(CN%13C(=O)N(CN%14C(=O)N(CN1C2=O)C%10C9%14)C8C7%13)C6C5%12)C4C3%11 (stereo not drawn) [CB[5]] | –
7 | >1000 mg/mL | – | – | – | – | – | – | >55 | – | – | OC[C@H]1O[C@@H]2O[C@H]3[C@H](O)[C@@H](O)[C@@H](O[C@H]4[C@H](O)[C@@H](O)[C@@H](O[C@H]5[C@H](O)[C@@H](O)[C@@H](O[C@H]6[C@H](O)[C@@H](O)[C@@H](O[C@H]7[C@H](O)[C@@H](O)[C@@H](O[C@H]8[C@H](O)[C@@H](O)[C@@H](O[C@H]1[C@H](O)[C@H]2O)O[C@@H]8CO)O[C@@H]7CO)O[C@@H]6CO)O[C@@H]5CO)O[C@@H]4CO)O[C@@H]3CO [β-CD] | CD content of the solution at that solubility ([1]; ChCl-urea DES): ~50 wt %
8 | 2 mg/mL | 3.1 | 2.0 | <0.2 | 1.8 | 0.1 | 0.3 | 10 | <0.2 | formation of a 2:1 complex | Cucurbit[8]uril [CB[8]] | –

Source: patent publication US11530317B2, “Deep eutectic solvent compositions” (SABIC GLOBAL TECHNOLOGIES B.V., priority 2017, dated 2022)
